Measurements published in US20020082262A1, “Substituted bicyclic compounds for treating multidrug resistance” (priority 2000, published 2002).

Tested on: NIH-MDR1-G185 cells
Assay: Fluorescent Substrate Accumulation Assay (BODIPY-FL Taxol accumulation)
Format: cell-based
Conditions: MDR modulator 10 micromolar, BODIPY-FL Taxol 500 nM, 40 min at 37° C.; fluorescence in NIH-MDR1-G185 cells in presence / absence of modulator
Protocol: Fluorescent Substrate Accumulation Assay NIH-MDR1-G185 cells (obtained from M. Gottesman, NIH) were harvested and resuspended in RPMI-1640 containing L-glutamine, 10% Cosmic Calf Serum and penicillin-streptomycin. Cell suspension aliquots of 175 microliters (1×10^5 cells) were added to individual wells of a 96 well microtiter plate and preincubated for 15 min at 37° C. with 20 microliters MDR modulator diluted in cell culture media to give a final concentration of 10 micromolar. Control wells received no modulating agent. BODIPY-FL Taxol (Molecular Probes, Eugene, Oreg.) was added to each well in 10 microliter aliquots to give a final concentration of 500 nM and cells were incubated for 40 min at 37° C. Cells were centrifuged at 100×g for 5 min at 4° C. and the cell pellet washed with 200 microliters cold PBS to remove fluorescent medium from wells. Cells were centrifuged once more, media removed, and cells resuspended in 200 microliters cold PBS. Fluorescence accumulation was measured in a fluorescence plate reader fitted with an excitation filter of 485 nm and an emission filter of 538 nm. BODIPY-FL taxol accumulation in the cells was calculated as follows: Accumulation Index=(fluorescence in NIH-MDR1-G185 cells in the presence of modulator)/(fluorescence in NIH-MDR1-G185 cells in absence of modulator)

Compound | Accumulation Index
1-[5-Phenyl-2-(3-phenyl-propyl)-pentanoic acid {4-[2-hydroxy-3-(quinolin-5-yloxy)-propyl]-piperazin-4-yl}-amide]piperidine [Example 10] | 8
O=C(C(CCCc1ccccc1)CCCc1ccccc1)N1CCN(C2CCN(C[C@@H](O)COc3cccc4ncccc34)CC2)CC1 [Example7, 4-[5-phenyl-2-(3-phenyl-propyl)-pentanoic acid {1-[2-hydroxy-3-(quinolin-5-yloxy)-propyl]-piperazin-4-yl}-amide]piperidine] | 9
O=C(C(CCCc1ccccc1)CCCc1ccccc1)N1CCC(NC2CCN(C[C@@H](O)COc3cccc4ncccc34)CC2)CC1 [Example 15] | 6
O=C(CN1CCN(C[C@@H](O)COc2cccc3ncccc23)CC1)NC[C@H]1CC[C@H](C(=O)NC(CCCc2ccccc2)CCCc2ccccc2)CC1 [Example 22, N-{1-[2-(R)-hydroxy-3-(quinolin-5-yloxy)-propyl]-piperazine-4-acetyl}-trans-4-aminomethyl-1-cyclohexanecarboxylic acid [4-phenyl-1-(3-phenyl-propyl)-butyl]-amide] | 7
O=C(CN1CCN(C[C@@H](O)COc2cccc3ncccc23)CC1)N[C@@H](Cc1cccnc1)C(=O)N1CCC(C(=O)NC(CCCc2ccccc2)CCCc2ccccc2)CC1 [Example 27, 1-(N-{1-[2-(R)-hydroxy-3-(quinolin-5-yloxy)-propyl]-piperazine-4-acetyl}-[3-(3-pyridyl)-alanyl])-piperidine-4-carboxylic acid [4-phenyl-1(3-phenyl-propyl)-butyl]-amide] | 8
